Entries after “also recorded” stand apart in the source; their conditions may differ. Non-standard residues stand in square brackets, D forms with d. Residues, ends and D or L forms follow the SMILES beside them. *: point of attachment. Phenylacetyl(2,3,4,5,6-F5) = O=C(Cc1c(F)c(F)c(F)c(F)c1F)*; Phe(F5) = N[C@@H](Cc1c(F)c(F)c(F)c(F)c1F)C(=O)O; Phe(4-Cl) = N[C@@H](Cc1ccc(Cl)cc1)C(=O)O; hArg = N=C(N)NCCCC[C@H](N)C(=O)O; 12Ado = NCCCCCCCCCCCC(=O)O; Nle = CCCC[C@H](N)C(=O)O; Abu = CC[C@H](N)C(=O)O
What was measured:
rat pituitary cells = assay: Inhibition of GHRH(1-29)NH2-stimulated GH release from rat pituitary cells (ELISA); assay type: cell-based; conditions: analog 20 nM
Experimental: In vitro assessment of the antagonistic activity of GHRH analogs. Rats were decapitated and pituitaries were collected in pre-warmed HBSS (Hanks' Balanced Salt Solution). Tissue was then cut into small pieces and digested in HBSS medium containing 3% BSA, 50 μg/ml gentamycin and 0.5% collagenase for 50 minutes at 37° C. Cells were further dispersed by pipetting and passed through a 100 μm cell strainer with the addition of DMEM containing 50 μg/ml gentamycin, 10% horse serum and 2.5% FBS (growth medium). Cells were harvested at 475×g for 2 minutes, resuspended in fresh growth medium and seeded onto poly-D-lysine-coated 24-well plates (7 pituitaries/plate). Cells were left to recover for 4 days. Growth medium was then replaced with serum-free DMEM for 4 hours and GHRH analogs (at concentration of 20 nM) were added in DMEM containing 0.1% BSA for 30 minutes. Cells were replenished with medium containing the same concentration of the analogs and 1 nM GHRH(1-29)NH2 for 30 minutes. Medium from this step was collected, centrifuged at 800 g for 3 minutes and GH concentration was determined by ELISA (ALPCO Diagnostics, Mill Valley, CA) according to the manufacturer's instruction.

[1] = target: T1, membrane GHRH-receptors on human anterior pituitary cells (Homo sapiens, UniProt Q02643); assay: Competitive receptor binding, displacement of 125I-[His1,Nle27]-hGH-RH(1-32)NH2 from human pituitary membranes
T1 construct: Human pituitary was purchased from the National Hormone and Peptide Program; tissue National Hormone and Peptide Program; host or cells: human pituitary membrane fractions
T1 sequence (Q02643 23-423): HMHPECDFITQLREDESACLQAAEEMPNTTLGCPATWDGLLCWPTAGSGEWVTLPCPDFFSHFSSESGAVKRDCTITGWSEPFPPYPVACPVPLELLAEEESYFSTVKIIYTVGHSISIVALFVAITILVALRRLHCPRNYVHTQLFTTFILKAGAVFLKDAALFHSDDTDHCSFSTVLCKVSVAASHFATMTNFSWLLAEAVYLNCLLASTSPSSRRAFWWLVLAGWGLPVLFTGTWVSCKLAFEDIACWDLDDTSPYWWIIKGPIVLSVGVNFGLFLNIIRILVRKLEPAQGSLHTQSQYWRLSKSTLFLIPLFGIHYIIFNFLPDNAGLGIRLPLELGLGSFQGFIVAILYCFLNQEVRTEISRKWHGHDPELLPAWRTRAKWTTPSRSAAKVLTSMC
Experimental: Receptor binding affinities in vitro. Preparation of human pituitary membrane fractions and receptor binding of analogs of GH-RH were performed (Halmos G, Rekasi Z, Szoke B, Schally A V. (1993) Receptor 3:87-97). Human pituitary was purchased from the National Hormone and Peptide Program. […] Relative affinities compared to hGH-RH(1-29)NH2 were calculated as the ratio of IC50 (dose causing 50% inhibition of specific binding to receptors) of the tested peptides to the IC50 of hGH-RH(1-29)NH2. The values were calculated from technical duplicate tubes.
Nineteen new AVR analogs of GHRH were tested in the receptor binding assay. Table 6 presents the IC50 values of GHRH antagonists to membrane GHRH-receptors binding on human anterior pituitary cells.

HCC827 xenograft = assay: Xenograft tumor growth in nude mice, lung cancer HCC827; assay type: in vivo; conditions: 5 μg/day s.c., vs control
Experimental: (§1) The peptides' activity was compared with GHRH antagonist MIA-602. All statistical analyzses were performed from comparing GHRA antagonists to non-treated tumor (control).
(§2) Peptides and chemicals. GHRH antagonists MIA-602 and AVR-GHRH antagonists (see Table 2 above) were synthesized by solid phase methods and purified by HPLC. The peptides were dissolved in DMSO and further diluted in 10% 1, 2-propanediol. The final concentration of peptides was 50 µg/ml in 10% 1, 2-propanediol containing 0.1% of DMSO.
(§3) Cell culture. Human cancer cell lines including pancreatic (PANC-1 and CFPAC-1), lung (HCC827 and H460), stomach (NCI-N87), prostate (PC3), brest (MX-1 and HCC-1806), colorectal (HT-29), and ovarian (SK-OV-3 and OVCAR-3) were obtained from the American Type Culture Collection (ATCC) and cultured at 37° C. in a humidified 95% air/5% CO2 atmosphere in the medium recommended by ATCC.
(§4) Xenograft models of human cancers in nude mice. Female athymic (NCr nu/nu) nude mice, 5-to 6-weeks-old, obtained from the Envigo labs (Tampa, FL), were housed in laminar airflow cabinets under pathogen-free conditions with a 12-h light/12-h dark schedule, and were fed autoclaved standard chow and water. To generate mice with xenografted tumors, tumor xenografts were initiated by subcutaneous (s.c.) injection of […] human cancer cells into female nude mice. After about 4 weeks the resulting tumors were dissected and collected after removing necrosis tissues. The tumors were then cut into particles with size of ˜3 mm3 and transplanted s.c. by trocar needle into experimental animals. When tumors grew to the size of 50-60 mm3 (by volume), mice were randomized into groups and treated daily for 4-8 weeks by subcutaneous administration of 5 μg of GHRH antagonists MIA-602 or AVR-compounds (2-10 μg as indicated), or vehicle solutions (0.1% DMSO in 10% 1, 2-propanediol) respectively. Tumor sizes were measured weekly.
(§5) Statistical analysis. One-way ANOVA followed by Bonferroni comparison were performed. Data are expressed as Mean±SEM. To determine statistical significance between animal groups, two-tailed Student's t-test was conducted. Differences were considered significant when p<0.05.
(§6) Results. […] FIG. 1A-N represents in vivo inhibition of tumor growth during the treatment with GHRH antagonist MIA-602 and selected AVR antagonists in nude mice xenografted with various human tumors including pancreatic cancer PANC-1 (FIG. 1A) and CFPAC-1 (FIG. 1I); lung cancer HCC827 (FIGS. 1B, C) and H460 (FIG. 1H); stomach cancer N87 (FIGS. 1D-F); colon cancer HT-29 (FIG. 1G); breast cancer MX-1 and HCC-1806 (FIGS. 1J, K); ovarian cancer SK-OV-3 and OVACAR-3 (FIGS. 1L, M) and prostate cancer PC3 (FIG. 1N). See also Table 5.

NCI-N87 xenograft = assay: Xenograft tumor growth in nude mice, stomach cancer N87; assay type: in vivo; conditions: Panel F, 4 weeks, 5 μg/day s.c., vs control
Experimental: as §1, §2, §3
as §4, with “mice were randomized into groups and treated daily for 4-8 weeks by subcutaneous administration” left out
as §5, §6

HT-29 xenograft = assay: Xenograft tumor growth in nude mice, colon cancer HT-29; assay type: in vivo; conditions: Panel G, 6 weeks
Experimental: as §1, §2, §3, §4, §5, §6

SK-OV-3 xenograft = assay: Xenograft tumor growth in nude mice, ovarian cancer SK-OV-3; assay type: in vivo; conditions: Panel L, 7 weeks
Experimental: as §1, §2, §3, §4, §5, §6

OVCAR-3 xenograft = assay: Xenograft tumor growth in nude mice, ovarian cancer OVCAR-3; assay type: in vivo; conditions: Panel M, 9 weeks
Experimental: as §1, §2, §3, §4
(§7) Statistical analysis. One-way ANOVA followed by Bonferroni comparison were performed. Data are expressed as Mean±SEM. […]

PC3 xenograft = assay: Xenograft tumor growth in nude mice, prostate cancer PC3; assay type: in vivo; conditions: Panel N, 8 weeks, 5 μg/day s.c.
Experimental: as §1, §2, §3, §4, §7

Row | IC50 ([1]; human anterior pituitary membranes, mean of two to three determinations, read-out: IC50) [nM] | Structure (SMILES) | Inhibitory effect on the release of GH compared with MIA-602 (rat pituitary cells) | Binding affinity to membrane receptors of human pituitary cells [1] | % Inhibition (HCC827 xenograft; Panel B, 7 weeks) [%] | % Inhibition (HCC827 xenograft; Panel C, 8 weeks) [%] | % Inhibition (NCI-N87 xenograft) [%] | Tumor Growth % (HT-29 xenograft; 2 μg/day s.c.) [%] | Tumor Growth % (HT-29 xenograft; 5 μg/day s.c.) [%] | Tumor Growth % (SK-OV-3 xenograft; 2.5 μg/day s.c.) [%] | Tumor Growth % (SK-OV-3 xenograft; 5 μg/day s.c.) [%] | Tumor Growth % (OVCAR-3 xenograft; 2.5 μg/day s.c.) [%] | Tumor Growth % (OVCAR-3 xenograft; 5 μg/day s.c.) [%] | Tumor Growth % (PC3 xenograft) [%]
1 | – | CCCC[C@H](NC(=O)[C@@H](NC(=O)[C@H](CC(=O)O)NC(=O)[C@H](CCC(N)=O)NC(=O)[C@H](CC(C)C)NC(=O)[C@H](CC(C)C)NC(=O)[C@H](CCCCN)NC(=O)[C@H](CCCNC(=N)N)NC(=O)[C@H](C)NC(=O)[C@H](CO)NC(=O)[C@H](CC(C)C)NC(=O)[C@H](CCC(N)=O)NC(=O)[C@H](CC)NC(=O)[C@H](CC(C)C)NC(=O)[C@@H](NC(=O)[C@H](CCCCN)NC(=O)[C@H](CCCNC(=N)N)NC(=O)[C@H](Cc1c(F)c(F)c(F)c(F)c1F)NC(=O)[C@H](CCCCNC(=N)N)NC(=O)[C@H](C)NC(=O)[C@@H](NC(=O)[C@H](Cc1ccc(Cl)cc1)NC(=O)[C@@H](NC(=O)[C@H](C)NC(=O)[C@H](CC(=O)O)NC(=O)[C@@H](CCCNC(=N)N)NC(=O)[C@H](Cc1ccc(O)cc1)NC(=O)CCCCCCCCCCCNC(=O)Cc1c(F)c(F)c(F)c(F)c1F)[C@@H](C)CC)[C@@H](C)O)C(C)C)[C@@H](C)CC)C(=O)N[C@H](CCCNC(=N)N)C(=O)N[C@@H](CCCCNC(=N)N)C(=O)NCCCCCCCCCCCC(N)=O [AVR-353, 5FPhAC-Ada-Tyr-DArg-Asp-Ala-Ile-Cpa-Thr-Ala-Har-5FPhe-Arg-Lys-Val-Leu-Abu-Gln-Leu-Ser-Ala-Arg-Lys-Leu-Leu-Gln-Asp-Ile-Nle-DArg-Har-Ada-NH2] ({Phenylacetyl(2,3,4,5,6-F5)-12Ado}-Y[dR]DAI[Phe(4-Cl)]TA[hArg][Phe(F5)]RKVL[Abu]QLSARKLLQDI[Nle][dR][hArg][12Ado]-NH2) | higher inhibitory effects than MIA-602 | higher binding affinity in comparison to MIA-602; also recorded: highest binding affinities | 71.0 | 50.0 | 65.0 | 549.30 | 494.70 | 1056.0 | 910.7 | 357.0 | 255.2 | 496.7
2 | 0.14 | CCCC[C@H](NC(=O)[C@@H](NC(=O)[C@H](CC(=O)O)NC(=O)[C@H](CCC(N)=O)NC(=O)[C@H](CC(C)C)NC(=O)[C@H](CC(C)C)NC(=O)[C@H](CCCCN)NC(=O)[C@H](CCCNC(=N)N)NC(=O)[C@H](C)NC(=O)[C@H](CO)NC(=O)[C@H](CC(C)C)NC(=O)[C@H](CCC(N)=O)NC(=O)[C@H](CC)NC(=O)[C@H](CC(C)C)NC(=O)[C@@H](NC(=O)[C@H](CCCCN)NC(=O)[C@H](CCCNC(=N)N)NC(=O)[C@H](Cc1c(F)c(F)c(F)c(F)c1F)NC(=O)[C@H](CCCCNC(=N)N)NC(=O)[C@H](C)NC(=O)[C@@H](NC(=O)[C@H](Cc1ccc(Cl)cc1)NC(=O)[C@@H](NC(=O)[C@H](C)NC(=O)[C@H](CC(=O)O)NC(=O)[C@@H](CCCNC(=N)N)NC(=O)[C@H](Cc1ccc(O)cc1)NC(=O)CCCCCCCCCCCNC(=O)Cc1c(F)c(F)c(F)c(F)c1F)[C@@H](C)CC)[C@@H](C)O)C(C)C)[C@@H](C)CC)C(=O)N[C@H](CCCNC(=N)N)C(=O)N[C@@H](CCCCNC(=N)N)C(=O)NCCCCCCCCCCCC(=O)NC [AVR-354] ({Phenylacetyl(2,3,4,5,6-F5)-12Ado}-Y[dR]DAI[Phe(4-Cl)]TA[hArg][Phe(F5)]RKVL[Abu]QLSARKLLQDI[Nle][dR][hArg][12Ado]-NHMe) | – | higher binding affinity in comparison to MIA-602; also recorded: highest binding affinities | – | – | – | – | 417.90 | – | – | – | – | 343.6

Reference: patent US11993640B2, “Treating inflammatory lung disease” (United States Government as represented by the Department …, priority 2019, dated 2024)
